Columns and labels:
[1] = mefloquine enantiomers; cited from earlier work
human retinal explants = assay: HCQ effect on AAV transduction in human retinal explants, mean grey value (GFP fluorescence); format: cell-based; details: 3.125 uM HCQ, 1×10^9 genome copies rAAV2.CAG.GFP.WPRE.pA, imaged every 2 days for 11 days, n=6, p=0.0213
Method: Harvesting tissue. Human retina fragments was extracted during routine retinal surgery in which a retinectomy was required (ethics approved). Fragments of retina were removed via a 23G sclerostomy with vitrectomy cutter (at minimal cut rate) and manual aspiration.
Culturing explants. Within 1 hr of tissue collection, retinal fragments were transferred using a 3 mL Pasteur pipette into individual organotypic culture inserts (BD Falcon), which were in turn placed within a 24-well plate. 400 uL of media was placed beneath the insert and 100 uL of media within the insert. 24 hr after culturing the retinal explants, the media was replaced with media containing 3.125 uM or 18.75 uM of HCQ. The explants were incubated in the HCQ medium for 1 hour prior to transduction with 1×10^9 genome copies of rAAV2.CAG.GFP.WPRE.pA vector. The explants were imaged every 2 days for 11 days and the mean grey value (representative of GFP fluorescence) of the explants was measured using ImageJ software (FIG. 3a).

retina of C57BL/6 mice [2] = assay: Subretinal co-injection of AAV GFP vector and HCQ in mice, OCT retinal thickness; format: in vivo, mouse; details: subretinal injection suspension with 3.125 uM or 18.75 uM HCQ, OCT at 2, 4 and 8 weeks
Method: (§1) Subretinal injections. 7 week old female C57BL/6 mice were subretinally injected with 1.2 μL vector suspension (1×10^8 genome copies). The vector was prepared with a 3.125 uM or 18.75 uM final concentration of HCQ with control preparations without any HCQ. Animals were injected with an AAV+HCQ preparation in one eye and AAV only in the paired eye.
OCT analysis. Animals were subject to wide-field spectral-domain optical coherence tomography (OCT, Spectralis HRA, Heidelberg Engineering) at 2, 4 and 8 weeks post-injection. Mice were scanned using a 55° lens and 8 radial sections were taken with a real-time average process of 25 frames. The total retinal thickness and the outer limiting membrane (OLM) thickness were manually measured on alternate radial sections using a calliper.

Primary NHP RPE cells [3] = assay: HCQ effect on AAV transduction in primary NHP RPE cells, GFP protein western blot; format: cell-based, Rhesus macaque (M. mullata); details: 18.75 μM HCQ
Method: (§2) Harvesting non-human primate (NHP) retinal pigment epithelium (RPE) cells. After enucleation, the cornea and lens were removed under direct visualization with a surgical microscope. Radial incisions were made towards the posterior pole to flatten the eyecup. The retina was removed by blunt dissection and the remaining eyecup was placed in media and stored on ice until the RPE cells were removed. RPE cells were detached using the TrypLE cell dissociation reagent and were cultured at 37° C.
(§3) Cell culture. Primary NHP RPE cells were seeded into a 12-well plate. 24 hr after seeding, the cells were incubated in media with 3.125 uM or 18.75 uM of HCQ for 1 hr prior to transduction with 2×10^9 genome copies per well. Cells were imaged 3 days post-transduction.
Protein extraction. The flow through from RNA extraction above was combined with 4 volumes of acetone and incubated on ice for 30 min. Samples were centrifuged at 17,000×g for 30 min, the supernatant was discarded and the pellet washed in 100 μL of ice-cold ethanol. Pellets were resuspended in 1% SDS.
(§4) Western blot. Total protein content in cell lysates was determined using the bicinchoninic acid method. GFP and actin proteins were probed using monoclonal antibodies, and detected using ECL and Odyssey Imaging System (LI-COR). Data analysis was performed using ImageStudio Lite software (LI-COR). GFP band density was normalised to β-actin.

Mouse retinas = assay: Subretinal co-injection of AAV GFP vector and HCQ in mice, GFP western blot of retinas; format: in vivo; details: 18.75 μM HCQ
Method: as §1
Protein extraction. Mouse retinas were thawed on ice and lysed in 1× RIPA buffer+protease inhibitors. The retinas were homogenised using a hand-held homogeniser and incubated on ice for 30 mins. The samples were centrifuged at 17,000×g at 4° C. for 20 mins. The supernatant was transferred to a new tube and kept on ice.
as §4, with “blot (WB).” for “blot.”, “actin.” for “β-actin.”

[4] = tested on: Wildtype (WT) mouse embryonic fibroblasts (MEFs); assay: HCQ effect on AAV (rAAV2.CAG.GFP.WPRE.pA) transduction in MEFs, flow cytometry GFP / 7-AAD; format: cell-based
Method: Cell culture. Wildtype (WT) mouse embryonic fibroblasts (MEFs) were seeded into 6-well plates. 24 hr after seeding the cells were incubated in culture media with HCQ concentrations of 3.125-50 uM for 1 hr prior to transduction with a rAAV2.CAG.GFP.WPRE.pA vector at a MOI of 1000. The cells were cultured in HCQ containing media until harvesting. Cells were imaged 3 days post-transduction (FIG. 1A).
Flow cytometry analysis. Cells were processed 3 days post-transduction and stained with the cell viability dye 7-AAD for 5 minutes prior to flow cytometry analysis. Fluorescent light was measured by a BD LSRFortessa flow cytometer using a blue laser with the bandpass filters 695 nm/[…] and 530 nm/[…] to detect the fluorochromes of 7-AAD and GFP, respectively (FIG. 1a).

retina of C57BL/6 mice [5] = assay: Subretinal co-injection of AAV GFP vector and HCQ in mice, cSLO fundus autofluorescence; format: in vivo, mouse; details: AAV 1×10^8 genome copies with 18.75 uM HCQ, 4 and 8 weeks post-injection
Method: as §1
Confocal scanning laser ophthalmoscope (cSLO) analysis. Standardized mouse autofluorescence (AF) imaging using a cSLO (Spectralis HRA, Heidelberg Engineering) was performed in all animals according to previously published protocol. All images were recorded using the 55° lens of the Spectralis HRA at 2, 4 and 8 weeks post-injection. Images were recorded using a standardized signal detector sensitivity. For quantitative analysis of fundus AF, the mean grey level was measured within a ring-shaped area located at radii between 350 and 860 pixels from the optic disc centre using ImageJ software (NIH).

Primary NHP RPE cells [6] = assay: HCQ effect on AAV transduction in primary NHP RPE cells, GFP qPCR; format: cell-based, Rhesus macaque (M. mullata); details: 18.75 μM HCQ, 3 days post-transduction, normalized to β-actin, N=3, p=0.0253
Method: as §2, §3
RNA & protein extraction and cDNA synthesis. The primary NHP RPE were harvested for RNA extraction 3-days post-AAV transduction with HCQ. Total RNA was extracted using the RNeasy Mini Kit (Qiagen) according to the manufacturer's instructions. Copy DNA was synthesised using 850-1500 ng of RNA using the Superscript III Kit (Invitrogen) with an oligo dT primer.
qPCR analysis. qPCR was carried out using TaqMan probes against GFP and β-actin in a CFX Connect thermal cycler (BioRad). GFP expression was normalized to β-actin and represented as a fold change to transduced cells incubated without HCQ.

In the case of `O[C@H](c1cc(C(F)(F)F)nc2c(C(F)(F)F)cccc12)[C@@H]1CCCCN1` (single isomer, unassigned) [(+)-enantiomer], the “half-life compared with the other enantiomer” value [1] is given as “shorter”.

For `CCN(CCO)CCCC(C)Nc1ccnc2cc(Cl)ccc12` (stereo not shown) [HCQ, 2-[{4-[(7-chloroquinolin-4-yl)amino]pentyl}(ethyl)amino]ethanol], the “increase in mean grey value (representative of GFP fluorescence) compared to no HCQ” value (human retinal explants) was “up to 2 fold”, the “mean retinal thickness or retinal morphology, groups with and without HCQ” value (retina of C57BL/6 mice [2]) was “no significant difference” and the “GFP protein expression increase compared to transduced cells incubated without HCQ” value (Primary NHP RPE cells [3]; 3 days post-transduction (FIGS. 2a and 2b)) was 19 fold. For the same molecule, the “GFP protein expression improvement by western blot” value (Primary NHP RPE cells [3]; N=2, GFP band density normalised to β-actin (FIG. 2c)) was “approximately 4 fold”, the “GFP signal detected by WB compared to the 0 μM HCQ paired eye” value (Mouse retinas) was “increase in the GFP signal” and the “HCQ concentration that induces cell death” value ([4]; 7-AAD viability dye, 3 days post-transduction) was ≥ 25 µM. The “number of GFP expressing cells” value ([4]; HCQ 3.125-50 uM from 1 hr before transduction, rAAV2.CAG.GFP.WPRE.pA MOI 1000, 3 days post-transduction) was “increase the number of GFP expressing cells up to 18.75 uM”, the “increase in mean grey value of fundus AF images (surrogate measure of GFP expression) compared to control eyes injected with AAV only” value (retina of C57BL/6 mice [5]) was 2 fold and the “GFP mRNA expression, fold change to transduced cells incubated without HCQ” value (Primary NHP RPE cells [6]) was 3 fold.

— patent publication US20210038591A1, “VIRAL VECTOR TRANSDUCTION” (Oxford University Innovation Limited, priority 2018, published 2021)
